Entries after “also recorded” stand apart in the source; their conditions may differ.
Key:
[1] = system: other intracranial tumors and brain tissue sections; assay: Fluorescent tissue staining of other tumors and brain tissue; assay type: binding, human
Text: (§1) The Department of Pathology, Mayo Clinic Rochester Tumor Tissue Registry, contains tumor samples procured by autopsy and surgery. Meningiomas, brain metastases and other tumors were identified by searching CoPath, a Mayo Clinic electronic pathology database of tumors collected since 1982. Tumor type was confirmed by viewing H&E stained slides under a light microscope.
(§2) Fresh cut 5 μm thick sections were used. Each staining run included normal brain and Alzheimer diseased brain as controls. Fluorescent tissue staining and microscopy was performed similar to methods previously described at Ikonomovic M D, Klunk W E, Abrahamson E E, et al., “Post-mortem correlates of in vivo PiB-PET amyloid imaging in a typical case of Alzheimer's disease”, Brain: A Journal Of Neurology 2008; 131:1630-45. Meningioma and other brain tumor sections were stained with 100 nM CN-PiB, 100 nM of unlabeled PiB or with saline alone as a negative control. The staining protocol was as follows: deparaffinization and rehydration, 0.25% KMnO4 incubation, water wash, 1% K2S2O5/1% Oxalic Acid incubation, water wash, PBS wash, 6-CN-PiB/PiB/saline incubation, PBS wash, NaCl, K2HPO4, and KH2PO4 incubation, water wash, mount coverslip, and storage at 4° C. in the dark until imaged. Slides were imaged within five days of staining. Immunohistochemical staining of meningiomas for beta amyloid protein was performed using NCL-B-Amyloid mouse anti-human antibody per standard clinical protocol.
(§3) Tissue stain images were obtained on a Zeiss 510 confocal microscope with excitation at 405 nm, a 420-480 bandpass filter, and the laser set at 15% power.
(§4) Images were obtained with a C-Apochromat 40×/1.2 W lens.

[2] = system: meningioma tissue sections; assay: Fluorescent tissue staining of meningioma sections; assay type: binding, human; conditions: for location of staining within meningioma cells: tissue sections
Text: as §1, §2, §3, §4

meningiomas = assay: FDG PET/CT imaging of meningiomas; assay type: in vivo, human
Text: (§5) An Alzheimer's imaging database of two hundred forty-one patients was reviewed. […] MRI reports of all patients were reviewed for possible meningiomas and other tumors. […] Tumors smaller than 7 millimeters are generally considered too small to be evaluated by PET or PET/CT.
(§6) The radiologic interpretations of MRI, CT and FDG PET/CT scans from a population of 834 people who participated in the population-based Mayo Clinic Study of Aging (MCSA) from March 2006 through September 2011 were reviewed for the presence of tumors or other brain lesions. (See, Kantarci K, Lowe V, Przybelski S A, et al., “Magnetic resonance spectroscopy, {beta}-amyloid load, and cognition in a population-based sample of cognitively normal older adults”, Neurology 2011; 77:951-8; and Roberts R O, Geda Y E, Knopman D S, et al., “The Mayo Clinic Study of Aging: design and sampling, participation, baseline measures and sample characteristics”, Neuroepidemiology 2008; 30:58-69.) Participants were randomly selected for recruitment in the MCSA from a population of older adult residents of Olmsted County, Minn., USA. Those with neurological, psychological or systemic illnesses were not excluded. Individuals with dementia, or those unable to be imaged for medical reasons were excluded. All patients were imaged with C11-PiB PET/CT, F18-FDG PET/CT and non-contrast MRI at least once as part of the study. Any additional patient imaging and clinical history was then reviewed.
PET imaging was performed as part of the Mayo Clinic Study of Aging as previously described. (See Kantarci K, Lowe V, Przybelski S A, et al., “Magnetic resonance spectroscopy, {beta}-amyloid load, and cognition in a population-based sample of cognitively normal older adults”, Neurology 2011; 77:951-8.) PiB PET/CT, then FDG PET/CT were performed on the same day. PET/CT imaging was performed on a 690XT or DRX PET/CT tomograph (GE Healthcare). The PET sinograms were reconstructed using a fully-3D OSEM algorithm into a 30 cm field of view; the pixel size was 1.2 mm and the slice thickness was 3.27 mm (DRX) or 1.96 mm (690XT). CT imaging was obtained immediately prior to PET acquisition and used for attenuation correction. Cerebral PiB retention, a marker of amyloid deposition, was measured as previously described. (See Kantarci K, Lowe V, Przybelski S A, et al. “Magnetic resonance spectroscopy, {beta}-amyloid load, and cognition in a population-based sample of cognitively normal older adults”, Neurology 2011; 77:951-8.)

non-meningioma tumors = assay: FDG PET/CT imaging of non-meningioma tumors; assay type: in vivo, human
Text: as §5, §6
PET imaging was performed as part of the Mayo Clinic Study of Aging as previously described. (See Kantarci K, Lowe V, Przybelski S A, et al., “Magnetic resonance spectroscopy, {beta}-amyloid load, and cognition in a population-based sample of cognitively normal older adults”, Neurology 2011; 77:951-8.) PiB PET/CT, then FDG PET/CT were performed on the same day. PET/CT imaging was performed on a 690XT or DRX PET/CT tomograph (GE Healthcare). […] Cerebral PiB retention, a marker of amyloid deposition, was measured as previously described. […]

Molecule	fluorescent staining ([1]; amyloid laden cerebral cortex, Alzheimer's disease, beta-amyloid plaques (positive control))	fluorescent staining ([1]; lung cancer brain metastasis)	fluorescent staining ([1]; normal brain gray matter)	fluorescent staining ([1]; schwannoma, FIG. 6 Panel E)	fluorescent staining ([1]; some other tumors)	fluorescent staining of meningioma tissue ([2]; 100 nM stain, 5 μm sections, fluorescent microscopy)	fluorescent staining of meningioma tissue ([2]; 100 nM stain, 5 μm sections, fluorescent microscopy, listed as highly-fluorescent version of the compound of Formula (V))	staining brightness versus other intracranial tumors ([2]; all meningiomas (n=7) vs other intracranial tumors (n=6))	fluorescent staining of meningioma tissue ([2]; multiple WHO grade I transitional type meningiomas)	location of staining within meningioma cells [2]	location of staining within meningioma cells ([2]; listed as highly-fluorescent version of the compound of Formula (V))	uptake on FDG-PET/CT (meningiomas; Example 1, four meningiomas)	uptake on FDG-PET/CT (meningiomas; Example 1, two meningiomas)	FDG activity (meningiomas; FIG. 3 meningioma)	FDG PET activity (meningiomas; FIG. 4 meningioma, panels G-I)	FDG activity (meningiomas; seven of the 16 meningiomas)	uptake on FDG-PET/CT (non-meningioma tumors; Example 1, presumed extracranial schwannoma)	FDG PET/CT result (non-meningioma tumors; FIG. 5 pituitary macroadenoma)	FDG PET activity (non-meningioma tumors; melanoma and small cell lung cancer metastases)
CNc1ccc(-c2nc3ccc(C#N)cc3s2)cc1 [Formula 6-CN-PiB]	very intense fluorescence	scattered fluorescence; also recorded: staining in the nuclei of the cells	almost no fluorescence	only trace fluorescence	Moderate 6-CN-PiB binding	stained positively; also recorded: intense fluorescence	accumulate	qualitatively brighter	stained positive	outside the nuclei, within the cytoplasm and/or cell membrane	within the nucleus of the cells of the meningiomas	–	–	–	–	–	–	–	–
Fluorodeoxyglucose [FDG]	–	–	–	–	–	–	–	–	–	–	–	no uptake	mild uptake	only trace FDG activity	increased FDG PET activity	moderate to high FDG activity	mild uptake	positive	increased FDG PET activity; also recorded: positive

Source: patent US10940218B2, “Treatment of meningiomas using phenylbenzothiazole, stilbene, biphenylalkyne, or pyridine derivatives” (MAYO FOUNDATION FOR MEDICAL EDUCATION AND RESEARCH, priority 2012, dated 2021)
